# According to US10080812B2, “Radioactive iodine labeled pyrido[1,2-a]benzoimidazole derivative compound” (priority 2015, dated 2018):
# Several values for one entry are separate records, joined by “and”; a condition that tells them apart may be missing. Equal values may be shown once.
# Experiments:
# [1] = Log P value measurement (1-octanol/phosphate buffer); format: physicochemical; settings: 1-octanol / 0.1 mol/L phosphate buffer solution pH 7.4
# Protocol: Each of [^125I]BIP-1 to -4 (125 kBq) obtained by the method shown in Example 9 was added to a centrifuge tube containing 1-octanol (3.00 mL) and a 0.1 mol/L phosphate buffer solution (pH 7.4, 3.00 mL), vortexed for 2 minutes, and then centrifuged at 4,000×g for 10 minutes. 500 μL of a solution was collected from each layer, and the radioactivity thereof was then measured. A partition coefficient was determined from the 1-octanol/phosphate buffer solution ratio of radioactivity.
# tau = test: In vitro autoradiography using autopsied brain tissue sections of an Alzheimer's disease patient (temporal lobe); format: binding, human; settings: for autoradiography images compared with [125I]BIP-1 and [125I]BIP-2: temporal and frontal lobe sections; for radioactivity accumulation in the brain gray matter of the temporal lobe / binding affinity for tau: AD brain section, 370 kBq/mL, 2 h room temperature; for nonspecific binding to the brain white matter: AD brain sections
# Protocol: (§1) Autopsied brain tissue sections of an Alzheimer's disease (AD) patient (sections from a frontal lobe site and a temporal lobe site, 6 μm) were used, which were provided from Graduate School of Medicine, Kyoto University. Deparaffinization treatment was performed by washing with xylene (15 min×2), ethanol (1 min×2), a 90 vol % aqueous ethanol solution (1 min×1), an 80 vol % aqueous ethanol solution (1 min×1), a 70 vol % aqueous ethanol solution (1 min×1), and purified water (2.5 min×2). A 10 vol % or 50 vol % aqueous ethanol solution of each of [^125I]BIP-1 to -4 (370 kBq/mL) obtained by the method shown in Example 9 was added thereto, and the tissue sections were incubated at room temperature for 2 hours. The tissue sections were washed with a 50 vol % aqueous ethanol solution (2 hr×1), then exposed to an imaging plate (BAS-SR2025 manufactured by Fujifilm Corp.) for 12 hours, and analyzed using a bioimaging analyzer (bioimaging analyzer BAS-5000 manufactured by Fujifilm Corp.). Multi Gauge manufactured by Fujifilm Corp. was used in quantitative analysis.
# Senile plaque (SP) and neurofibrillary tangle (NFT) were stained using sections near the brain sections used in autoradiography. An anti-Aβ1-42 monoclonal antibody (BC05, manufactured by Wako Pure Chemical Industries, Ltd.) was used as a primary antibody in the immunostaining of SP, and an anti-phosphorylated tau monoclonal antibody (AT8, manufactured by Thermo Fisher Scientific Inc.) was used as an antibody in the immunostaining of NFT. Deparaffinization treatment was performed by washing with xylene (15 min×2), ethanol (1 min×2), a 90 vol % aqueous ethanol solution (1 min×1), an 80 vol % aqueous ethanol solution (1 min×1), a 70 vol % aqueous ethanol solution (1 min×1), and purified water (2.5 min×2). The antigens were retrieved by autoclaving (15 min) in a 0.01 mol/L citrate buffer solution (pH 6.0) and formic acid treatment (5 min). The tissue sections were washed with running water (5 min) and then washed with PBS-Tween 20 (2 min×1). The tissue sections were reacted with primary antibody solutions at room temperature for 1 hour and then washed with PBS-Tween 20 (5 min×3). The tissue sections were reacted with Histofine Simple Stain MAX-PO (MULTI) (manufactured by Nichirei Biosciences Inc.) at room temperature for 30 minutes and then washed with PBS-Tween 20 (3 min×3) and TBS (5 min×1). Finally, the tissue sections were reacted with a DAB solution at room temperature for 1 minute. The tissue sections were washed with distilled water (1 min×1) to terminate the reaction. The brain tissue sections were mounted on slides and then observed under a microscope (BZ-9000 manufactured by Keyence Corporation).
# [2] = Comparison of intracerebral kinetics in mice; format: in vivo, ddY male mice; settings: for radioactivity in the brain: i.v. tail vein; for Brain2 min/60 min: ratio of radioactivity in the brain between 2 and 60 min after administration
# Protocol: (§2) Each of [^125I]BIP-1 to -4 obtained by the method shown in Example 9 was diluted with saline containing 10 vol % ethanol and 0.1 vol % Tween 80. Each of [^125I]BIP-1 to -4 was administered to a group of 5-week-old ddY male mice (26 to 28 g; each group involved 5 mice) from the tail veins thereof at 25.0 to 37.5 kBq (100 μL) per mouse. After 2, 10, 30, or 60 minutes, the mice were slaughtered. After blood collection, the brains were taken out, and their weights and radioactivity were measured. As for [^125I]BIP-3, the principal organs were also excised, and their weights and radioactivity were measured.
# amyloid β protein (Aβ) = molecular target: T1, amyloid β protein (Aβ) (Homo sapiens, UniProt P05067); test: In vitro autoradiography using autopsied brain tissue sections of an Alzheimer's disease patient (frontal lobe); format: binding; settings: for radioactivity accumulation in the frontal lobe section / binding affinity for the amyloid β protein (Aβ): AD brain section, 370 kBq/mL, 2 h room temperature
# T1 construct: from tissue; host or cells: autopsied AD patient brain, frontal lobe, 6 µm paraffin sections (Graduate School of Medicine, Kyoto University)
# T1 sequence (P05067 672-713 limits assumed): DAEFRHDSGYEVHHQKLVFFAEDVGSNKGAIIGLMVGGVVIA
# Protocol: as §1
# Senile plaque (SP) and neurofibrillary tangle (NFT) were stained using sections near the brain sections used in autoradiography. An anti-Aβ1-42 monoclonal antibody (BC05, manufactured by Wako Pure Chemical Industries, Ltd.) was used as a primary antibody in the immunostaining of SP, and an anti-phosphorylated tau monoclonal antibody (AT8, manufactured by Thermo Fisher Scientific Inc.) was used as an antibody in the immunostaining of NFT. Deparaffinization treatment was performed by washing with xylene (15 min×2), ethanol (1 min×2), a 90 vol % aqueous ethanol solution (1 min×1), an 80 vol % aqueous ethanol solution (1 min×1), a 70 vol % aqueous ethanol solution (1 min×1), and purified water (2.5 min×2). The antigens were retrieved by autoclaving (15 min) in a 0.01 mol/L citrate buffer solution (pH 6.0) and formic acid treatment (5 min). The tissue sections were washed with running water (5 min) and then washed with PBS-Tween 20 (2 min×1). […]
# [3] = Stability evaluation in plasma; format: in vitro ADME, ddY mouse; settings: 37° C., 1 hour
# Protocol: Blood was collected from the heart of a ddY mouse (5 weeks old, body weight: 25 to 28 g) under anesthesia with isoflurane. The collected blood was fractionated by centrifugation at 4000×g for 10 minutes to recover a supernatant. [^125I]BIP-3 obtained by the method shown in Example 9 (188 kBq, 10.0 μL, ethanol solution) and the mouse plasma sample (200 μL) were mixed. The mixture was incubated at 37° C. for 1 hour, and acetonitrile (400 μL) was added thereto, followed by fractionation by centrifugation at 4000×g for 10 minutes. The supernatant was recovered, treated with Cosmonice Filter (S) (0.45 μm, 4 mm) (Nacalai Tesque, Inc.), and then analyzed by reverse phase HPLC. Analytical conditions for HPLC were the same as the conditions used in Example 9.
# [4] = In vivo radioactivity distribution experiment; parameters: species or system ddY male mice; settings: mouse; for radioactivity in Blood / radioactivity in Brain / radioactivity in Heart / radioactivity in Intestine / radioactivity in Kidneys / radioactivity in Liver / radioactivity in Lungs / radioactivity in Pancreas / radioactivity in Spleen / radioactivity in Stomach / radioactivity in Thyroid gland: i.v.
# Protocol: as §2
# [5] = mouse, 2 min after administration
# [6] = mouse, 10 min after administration
# [7] = mouse, 30 min after administration
# [8] = mouse, 60 min after administration
smiles,measurement,setting,value
"[125I]c1ccn2c(c1)nc1ccccc12 [[^125I]BIP-4, 3-[^125I]iodobenzo[4,5]imidazo[1,2-a]pyridine]",Log P,[1],2.35
same,autoradiography images compared with [125I]BIP-1 and [125I]BIP-2,tau,images equivalent to [^125I]BIP-1 and [^125I]BIP-2
same,radioactivity in the brain,[2]; [5],2.37 % ID/g
same,radioactivity in the brain,[2]; [6],0.36 % ID/g
same,radioactivity in the brain,[2]; [7],0.09 % ID/g
same,radioactivity in the brain,[2]; [8],0.06 % ID/g
same,Brain2 min/60 min,[2],39.5
"[125I]c1ccc(-c2ccn3c(c2)nc2ccccc23)cc1 [[^125I]BIP-2, 3-(4-[^125I]iodophenyl)benzo[4,5]imidazo[1,2-a]pyridine]",Log P,[1],2.61
same,radioactivity accumulation in the brain gray matter of the temporal lobe / binding affinity for tau,tau; temporal lobe,have binding affinity for tau
same,nonspecific binding to the brain white matter,tau,low nonspecific binding
same,radioactivity in the brain,[2]; [5],2.73 % ID/g
same,radioactivity in the brain,[2]; [6],1.73 % ID/g
same,radioactivity in the brain,[2]; [7],0.57 % ID/g
same,radioactivity in the brain,[2]; [8],0.26 % ID/g
same,Brain2 min/60 min,[2],10.4
same,radioactivity accumulation in the frontal lobe section / binding affinity for the amyloid β protein (Aβ),amyloid β protein (Aβ),low
"[125I]c1ccc2c(c1)nc1ccccn12 [[^125I]BIP-3, 7-[^125I]iodobenzo[4,5]imidazo[1,2-a]pyridine]",stability in mouse plasma (reverse phase HPLC),[3],only the peak of the parent compound was detected
same,Log P,[1],3.22
same,autoradiography images compared with [125I]BIP-1 and [125I]BIP-2,tau,images equivalent to [^125I]BIP-1 and [^125I]BIP-2
same,radioactivity accumulation to the temporal lobe (quantitative analysis),"tau; temporal lobe sites e-j, compared with frontal lobe",higher radioactivity accumulation
same,radioactivity accumulation on temporal lobe section compared with immunostaining of tau and Aβ,"tau; temporal lobe, AT8 and BC05 immunostaining",consistent with the accumulation of tau
same,radioactivity in the brain,[2]; [5],4.74 % ID/g
same,radioactivity in the brain,[2]; [6],0.65 % ID/g
same,radioactivity in the brain,[2]; [7],0.12 % ID/g
same,radioactivity in the brain,[2]; [8],0.06 % ID/g
same,intracerebral kinetics,"[2]; mouse, i.v., 2-60 min",favorable intracerebral kinetics
same,Brain2 min/60 min,[2],79.0
same,radioactivity in Blood,[4]; 2 min,5.20 (0.44) % ID/g
same,radioactivity in Brain,[4]; 2 min,4.74 (0.57) % ID/g
same,radioactivity in Heart,[4]; 2 min,7.66 (1.21) % ID/g
same,radioactivity in Intestine,[4]; 2 min,5.41 (0.62) % ID/g
same,radioactivity in Kidneys,[4]; 2 min,23.7 % ID/g and 23.7 (2.44) % ID/g
same,radioactivity in Liver,[4]; 2 min,19.9 % ID/g and 19.9 (1.39) % ID/g
same,radioactivity in Lungs,[4]; 2 min,29.7 (4.63) % ID/g
same,radioactivity in Pancreas,[4]; 2 min,5.36 (0.91) % ID/g
same,radioactivity in Spleen,[4]; 2 min,4.76 (0.39) % ID/g
same,radioactivity in Stomach,[4]; 2 min,2.70 (0.56) % ID
same,radioactivity in Thyroid gland,[4]; 2 min,0.09 (0.03) % ID
same,radioactivity in Blood,[4]; 10 min,2.94 (0.41) % ID/g
same,radioactivity in Brain,[4]; 10 min,0.65 (0.07) % ID/g
same,radioactivity in Heart,[4]; 10 min,1.66 (0.75) % ID/g
same,radioactivity in Intestine,[4]; 10 min,11.6 (2.43) % ID/g
same,radioactivity in Kidneys,[4]; 10 min,12.2 (1.55) % ID/g
same,radioactivity in Liver,[4]; 10 min,14.4 (2.14) % ID/g
same,radioactivity in Lungs,[4]; 10 min,6.32 (1.16) % ID/g
same,radioactivity in Pancreas,[4]; 10 min,1.49 (0.47) % ID/g
same,radioactivity in Spleen,[4]; 10 min,1.34 (0.28) % ID/g
same,radioactivity in Stomach,[4]; 10 min,6.73 (1.64) % ID
same,radioactivity in Thyroid gland,[4]; 10 min,0.06 (0.02) % ID
same,radioactivity in Blood,[4]; 30 min,1.30 (0.16) % ID/g
same,radioactivity in Brain,[4]; 30 min,0.12 (0.01) % ID/g
same,radioactivity in Heart,[4]; 30 min,0.97 (0.26) % ID/g
same,radioactivity in Intestine,[4]; 30 min,21.4 (5.69) % ID/g
same,radioactivity in Kidneys,[4]; 30 min,10.3 (5.11) % ID/g
same,radioactivity in Liver,[4]; 30 min,6.29 (0.45) % ID/g
same,radioactivity in Lungs,[4]; 30 min,1.91 (0.29) % ID/g
same,radioactivity in Pancreas,[4]; 30 min,0.78 (0.47) % ID/g
same,radioactivity in Spleen,[4]; 30 min,0.58 (0.16) % ID/g
same,radioactivity in Stomach,[4]; 30 min,5.34 (1.26) % ID
same,radioactivity in Thyroid gland,[4]; 30 min,0.13 (0.03) % ID
same,radioactivity in Blood,[4]; 60 min,1.11 (0.53) % ID/g
same,radioactivity in Brain,[4]; 60 min,0.06 (0.01) % ID/g
same,radioactivity in Heart,[4]; 60 min,0.83 (0.24) % ID/g
same,radioactivity in Intestine,[4]; 60 min,29.4 % ID/g and 29.4 (7.49) % ID/g
same,radioactivity in Kidneys,[4]; 60 min,8.99 (4.47) % ID/g
same,radioactivity in Liver,[4]; 60 min,5.25 (0.95) % ID/g
same,radioactivity in Lungs,[4]; 60 min,1.45 (0.23) % ID/g
same,radioactivity in Pancreas,[4]; 60 min,0.75 (0.30) % ID/g
same,radioactivity in Spleen,[4]; 60 min,0.71 (0.11) % ID/g
same,radioactivity in Stomach,[4]; 60 min,4.42 (2.43) % ID
same,radioactivity in Thyroid gland,[4]; 60 min,0.22 % ID and 0.22 (0.03) % ID
same,deiodination in living body (from thyroid gland uptake),[4]; up to 60 min after administration,marked deiodination does not occur
same,radioactivity accumulation to the frontal lobe (quantitative analysis),"amyloid β protein (Aβ); frontal lobe sites a-d, only Aβ accumulates",low radioactivity accumulation
"[125I]c1ccc2c(c1)nc1cc(-c3ccccc3)ccn12 [[^125I]BIP-1, 7-[^125I]iodo-3-phenylbenzo[4,5]imidazo[1,2-a]pyridine]",Log P,[1],2.64
same,radioactivity accumulation in the brain gray matter of the temporal lobe / binding affinity for tau,tau; temporal lobe,have binding affinity for tau
same,nonspecific binding to the brain white matter,tau,low nonspecific binding
same,radioactivity in the brain,[2]; [5],3.51 % ID/g
same,radioactivity in the brain,[2]; [6],2.14 % ID/g
same,radioactivity in the brain,[2]; [7],0.65 % ID/g
same,radioactivity in the brain,[2]; [8],0.23 % ID/g
same,Brain2 min/60 min,[2],15.3
same,radioactivity accumulation in the frontal lobe section / binding affinity for the amyloid β protein (Aβ),amyloid β protein (Aβ),low
